Data published in patent US10021881B2, “Vaporized administration of pesticides” (priority 2016, dated 2018).

Legend:
Penicillium expansum [1] = experiment: Fogging versus vaporizing treatment of apples, browning of top and bottom wounds; format: in vivo; settings: 2.66 g in tunnel, 72 hours at 21° C., evaluated 4 days after removal, FIG. 23
Experimental: An in vivo assay was used to evaluate the ability of vaporized pyrimethanil to control pathogenic infection of apples by Penicillium expansum as compared to fogging methods of apple treatment. Vaporized treatments of apples were performed as previous described in Examples 1-6, with the exception of using a 1 m wide×1 m high×8 m deep tunnel (FIG. 11). A 2.66 g amount of pyrimethanil was either fogged or vaporized into the tunnel. Fruits were exposed to the treatment for 72 hours at 21° C., and then removed from the tunnel and evaluated 4 days after removal in order to observe and/or determine the area of browning wounds at the top and bottom of the fruit (see FIG. 23).

[2] = Particle size estimate from settling of fogged or vaporized pyrimethanil on Petri plates (HPLC); format: physicochemical; settings: for estimated pyrimethanil particle size: vaporized
Botrytis cinerea [3] = experiment: In vivo assay of vaporized pyrimethanil to inhibit Botrytis cinerea in strawberries; settings: for Gray Mold Severity (0-4): scale 0 no disease to 4 exceptionally high
Experimental: Eight strawberries (per repetition, in triplicate) were placed in an industry standard clamshell with the stem facing down. […] Clamshells were then placed at the bottom of a 36-L acrylic desiccator chamber in triplicate.
An appropriate amount of pyrimethanil to achieve a final headspace concentration of 1 mg/L, 0.3 mg/L, 0.1 mg/L, or 0.03 mg/L was dissolved in acetone and 100 μL of the solution was pipetted into a small glass tube. This tube was then placed inside a preheated vaporization device (0.5″ OD by 6″ long thermostatically heated copper tube mounted to a 0.5 L/min low flow fan) set at 60° C. for 1 minute to allow the acetone to evaporate, leaving behind the solid crystals of pyrimethanil.
Pyrimethanil was then introduced into the cabinets of the chamber through the bulkhead port by using the vaporization device as described in Example 1 set at 180° C. The chambers were then incubated at 21° C. for three (3) days. After incubation, fruits were evaluated daily for an additional 3 days at 21° C. Fruits were evaluated in order to observe percentage of disease incidence (%) and severity of disease. Disease severity was rated on a scale ranging from 0 to 4, where “0” indicated no disease severity, “1” indicated minimal disease severity, “2” indicated medium disease severity, “3” indicated high disease severity, and “4” indicated exceptionally high disease severity.

Penicillium expansum [4] = experiment: In vitro assay of vaporized pyrimethanil to inhibit pathogenic fungal growth (agar plates); format: cell-based; settings: P. expansum, 3 days at 23° C.
Experimental: (§1) An in vitro assay was used to evaluate the ability of pyrimethanil to vaporize in order to control the infection of various pathogenic microorganisms when applied to the plants and plant parts. For in vitro experiments, a 12-well microtiter plate, 6-well, or a 10-cm Petri plates each containing 7.5 ml, 16.5 or 22 ml volumes, respectively, of half strength Potato Dextrose Agar (PDA) were prepared. Each well or plate was inoculated with 1 microliter (μL) of 1×10^5 spores/ml of the appropriate pathogenic spore suspension (e.g., Botrytis cinerea, Penicillium expansum, Glomerella cingulata, Penicillium digitatum, Aspergillus flavus, Colletotrichum acutatum, Fusarium sambucinum, and Geotrichum candidum) by spotting the pathogen on the center of the agar well or plate. The inoculated microtiter or Petri plate was then sealed with a breathable film. One set of triplicate plates for each pathogen was placed inside the bottom of an air-tight 36-L desiccator chamber and closed with secure clamps.
(§2) Evaporation of the acetone left behind solid crystals of pyrimethanil.
(§3) The tube of the device was attached to a port on the side of the chamber that allowed airflow of the pyrimethanil vapor into the chamber. The chamber was at room temperature during administration of the pyrimethanil. The chambers were then incubated for three (3) days at 23° C. After incubation, post-treatment growth inhibition of each in vitro pathogen was measured on the inoculated plates and compared to control samples.

Aspergillus flavus = experiment: as above; format: cell-based; settings: A. flavus, 3 days at 23° C.
Experimental: as §1, §2, §3

Geotrichum candidum = experiment: as above; format: cell-based; settings: G. candidum, 3 days at 23° C.
Experimental: as §1, §2, §3

Fusarium sambucinum = experiment: as above; format: cell-based; settings: F. sambucinum, 3 days at 23° C.
Experimental: as §1, §2, §3

Colletotrichum acutatum = experiment: as above; format: cell-based; settings: C. acutatum, 3 days at 23° C.
Experimental: as §1, §2, §3

Penicillium digitatum = experiment: as above; format: cell-based; settings: P. digitatum, 3 days at 23° C.
Experimental: as §1, §2, §3

Botrytis cinerea [5] = experiment: as above; format: cell-based; settings: B. cinerea, 3 days at 23° C.
Experimental: as §1, §2, §3

Glomerella cingulata = experiment: as above; format: cell-based; settings: G. cingulata, 3 days at 23° C.
Experimental: as §1, §2, §3

[6] = 0.03 mg/L, Day 0 (after 3 days at 21° C.)
[7] = 0.03 mg/L, Day 1 (after 3 days at 21° C.)
[8] = 0.03 mg/L, Day 2 (after 3 days at 21° C.)
[9] = 0.03 mg/L, Day 3 (after 3 days at 21° C.)
[10] = 0.1 mg/L, Day 0 (after 3 days at 21° C.)
[11] = 0.1 mg/L, Day 1 (after 3 days at 21° C.)
[12] = 0.1 mg/L, Day 2 (after 3 days at 21° C.)
[13] = 0.1 mg/L, Day 3 (after 3 days at 21° C.)
[14] = 0.3 mg/L, Day 0 (after 3 days at 21° C.)
[15] = 0.3 mg/L, Day 1 (after 3 days at 21° C.)
[16] = 0.3 mg/L, Day 2 (after 3 days at 21° C.)
[17] = 0.3 mg/L, Day 3 (after 3 days at 21° C.)
[18] = 1 mg/L, Day 0 (after 3 days at 21° C.)
[19] = 1 mg/L, Day 1 (after 3 days at 21° C.)
[20] = 1 mg/L, Day 2 (after 3 days at 21° C.)
[21] = 1 mg/L, Day 3 (after 3 days at 21° C.)

## Cc1cc(C)nc(Nc2ccccc2)n1 [pyrimethanil, 4,6-Dimethyl-N-phenylpyrimidin-2-amine]
Penicillium expansum [1]
  browning at the bottom of the fruit, vaporized compared with fogged: much less area (mm) of browning
  browning on the top of the fruit, vaporized compared with fogged: comparable browning
[2]; FOG (MeOH + PYR), Settling Time 7.5 Minutes, Particle Size 5.9 (μm)
  percent of total pyrimethanil settled on the plates: 61%
[2]; FOG (MeOH + PYR), Settling Time 15 Minutes, Particle Size 4.1 (μm)
  percent of total pyrimethanil settled on the plates: 77%
[2]; FOG (MeOH + PYR), Settling Time 30 Minutes, Particle Size 2.8 (μm)
  percent of total pyrimethanil settled on the plates: 100%
[2]; FOG (MeOH + PYR), Settling Time 60 Minutes, Particle Size 1.9 (μm)
  percent of total pyrimethanil settled on the plates: 100%
[2]; FOG (MeOH + PYR), Settling Time 360 Minutes, Particle Size 0.75 (μm)
  percent of total pyrimethanil settled on the plates: 100%
[2]; VAPOR (100% Technical PYR), Settling Time 60 Minutes, Particle Size 1.9 (μm)
  percent of total pyrimethanil settled on the plates: 26%
[2]; VAPOR (100% Technical PYR), Settling Time 360 Minutes, Particle Size 0.75 (μm)
  percent of total pyrimethanil settled on the plates: 91%
[2]; fog particles, 100% settled after 30 minutes
  particle size: approximately 2.8 micron
[2]; 26% settled after 60 minutes
  estimated pyrimethanil particle size: 1.9 micron
[2]; 91% settled after 360 minutes
  estimated pyrimethanil particle size: 0.75 micron
Botrytis cinerea [3]; [6]
  Gray Mold Incidence (%): 79.2%
  Gray Mold Severity (0-4): 0.8
Botrytis cinerea [3]; [7]
  Gray Mold Incidence (%): 87.5%
  Gray Mold Severity (0-4): 1.3
Botrytis cinerea [3]; [8]
  Gray Mold Incidence (%): 91.7%
  Gray Mold Severity (0-4): 1.7
Botrytis cinerea [3]; [9]
  Gray Mold Incidence (%): 100.0%
  Gray Mold Severity (0-4): 2.1
Botrytis cinerea [3]; [10]
  Gray Mold Incidence (%): 70.8%
  Gray Mold Severity (0-4): 0.6
Botrytis cinerea [3]; [11]
  Gray Mold Incidence (%): 79.2%
  Gray Mold Severity (0-4): 0.8
Botrytis cinerea [3]; [12]
  Gray Mold Incidence (%): 83.3%
  Gray Mold Severity (0-4): 1.2
Botrytis cinerea [3]; [13]
  Gray Mold Incidence (%): 100.0%
  Gray Mold Severity (0-4): 1.7
Botrytis cinerea [3]; [14]
  Gray Mold Incidence (%): 66.7%
  Gray Mold Severity (0-4): 0.4
Botrytis cinerea [3]; [15]
  Gray Mold Incidence (%): 75.0%
  Gray Mold Severity (0-4): 0.5
Botrytis cinerea [3]; [16]
  Gray Mold Incidence (%): 73.8%
  Gray Mold Severity (0-4): 0.8
Botrytis cinerea [3]; [17]
  Gray Mold Incidence (%): 95.8%
  Gray Mold Severity (0-4): 1.1
Botrytis cinerea [3]; [18]
  Gray Mold Incidence (%): 66.7%
  Gray Mold Severity (0-4): 0.3
Botrytis cinerea [3]; [19]
  Gray Mold Incidence (%): 70.8%
  Gray Mold Severity (0-4): 0.4
Botrytis cinerea [3]; [20]
  Gray Mold Incidence (%): 69.6%
  Gray Mold Severity (0-4): 0.6
Botrytis cinerea [3]; [21]
  Gray Mold Incidence (%): 91.7%
  Gray Mold Severity (0-4): 1.0
Penicillium expansum [4]; 0.1 mg/L headspace
  Mycelial Growth Inhibition (%): 92.4%
Penicillium expansum [4]; 0.3 mg/L headspace
  Mycelial Growth Inhibition (%): 100.0%
Penicillium expansum [4]; 1 mg/L headspace
  Mycelial Growth Inhibition (%): 100.0%
Aspergillus flavus; 0.1 mg/L headspace
  Mycelial Growth Inhibition (%): 100.0%
Aspergillus flavus; 0.3 mg/L headspace
  Mycelial Growth Inhibition (%): 100.0%
Aspergillus flavus; 1 mg/L headspace
  Mycelial Growth Inhibition (%): 100.0%
Geotrichum candidum; 0.1 mg/L headspace
  Mycelial Growth Inhibition (%): 57.8%
Geotrichum candidum; 0.3 mg/L headspace
  Mycelial Growth Inhibition (%): 73.1%
Geotrichum candidum; 1 mg/L headspace
  Mycelial Growth Inhibition (%): 75.2%
Fusarium sambucinum; 0.1 mg/L headspace
  Mycelial Growth Inhibition (%): 58.3%
Fusarium sambucinum; 0.3 mg/L headspace
  Mycelial Growth Inhibition (%): 89.4%
Fusarium sambucinum; 1 mg/L headspace
  Mycelial Growth Inhibition (%): 92.2%
Colletotrichum acutatum; 0.1 mg/L headspace
  Mycelial Growth Inhibition (%): 100.0%
Colletotrichum acutatum; 0.3 mg/L headspace
  Mycelial Growth Inhibition (%): 90.0%
Colletotrichum acutatum; 1 mg/L headspace
  Mycelial Growth Inhibition (%): 89.7%
Penicillium digitatum; 0.1 mg/L headspace
  Mycelial Growth Inhibition (%): 100.0%
Penicillium digitatum; 0.3 mg/L headspace
  Mycelial Growth Inhibition (%): 100.0%
Penicillium digitatum; 1 mg/L headspace
  Mycelial Growth Inhibition (%): 100.0%
Botrytis cinerea [5]; 0.1 mg/L headspace
  Mycelial Growth Inhibition (%): 91.9%
Botrytis cinerea [5]; 0.3 mg/L headspace
  Mycelial Growth Inhibition (%): 92.1%
Botrytis cinerea [5]; 1 mg/L headspace
  Mycelial Growth Inhibition (%): 95.2%
Glomerella cingulata; 0.1 mg/L headspace
  Mycelial Growth Inhibition (%): 31.5%
Glomerella cingulata; 0.3 mg/L headspace
  Mycelial Growth Inhibition (%): 62.1%
Glomerella cingulata; 1 mg/L headspace
  Mycelial Growth Inhibition (%): 77.3%
